This note sets out measurements from ChEMBL document CHEMBL3232722, “Synthesis and kinase inhibitory activity of new sulfonamide derivatives of pyrazolo[4,3-e][1,2,4]triazines” (Eur J Med Chem, 2014).

One experiment relates to CCRF-CEM. The experiment in a line: In vitro antiproliferative activity against human CCRF-CEM cells assessed as decrease in cell viability after 24 hrs by MTT assay. The experiment is classed as functional, cell-based. A general note: Tetrazolium dyes change colour on reduction, which living cells bring about.
Experiment [1] addresses Casein kinase II subunit alpha (Homo sapiens, UniProt P68400). The experiment in a line: Inhibition of CK2alpha1 (unknown origin) using casein as substrate in presence of [gamma33P]ATP.
The nature of experiment [2]: (§1) In vitro antiproliferative activity against human BV173 cells assessed as decrease in cell viability after 24 hrs by MTT assay. Type of experiment: functional, cell-based. The conditions noted are these: BV-173, 24 h.
A further experiment concerns BV-173. The description is as §1. The experiment is classed as functional, cell-based.
The target in experiment [3] is T1, Tyrosine-protein kinase ABL1 (Homo sapiens, UniProt P00519). The experiment in a line: Inhibition of recombinant Abl kinase (unknown origin) expressed in Sf9 cells using GGEAIYAAPFKK as substrate in presence of [gamma33P]ATP.
The subject of experiment [4] is MCF7. In words: In vitro antiproliferative activity against human MCF7 cells assessed as decrease cell viability after 24 hrs by MTT assay. The experiment is classed as functional, cell-based. The following applies: for IC50: MCF7, 24 h.
For a further experiment, the system named is K562. In words: In vitro antiproliferative activity against human K562 cells assessed as decrease in cell viability after 24 hrs by MTT assay. The conditions noted are these: for IC50: K562, 24 h. The experiment is classed as functional, cell-based.
The subject of a further experiment is HL-60. The experiment in a line: In vitro antiproliferative activity against human HL60 cells assessed as decrease in cell viability after 24 hrs by MTT assay. The experiment is classed as functional, cell-based. The conditions noted are these: for IC50: HL-60, 24 h, read-out: IC50.
In experiment [5] the test system is MDA-MB-231. In words: Cytostatic activity against human MDA-MB-231 cells assessed as decrease in [3H]thymidine incorporation into DNA after 24 hrs by liquid scintillation counting analysis. Type of experiment: functional, cell-based.
Experiment [6] addresses Cyclin-dependent kinase 2/cyclin E1 (Homo sapiens, UniProt P24941). In words: Inhibition of CDK2/cyclin E (unknown origin) expressed in Sf9 cells using histone H1 as substrate in presence of [gamma33P]ATP.
Experiment [7] relates to MDA-MB-231. The experiment in a line: In vitro antiproliferative activity against human MDA-MB-231 cells assessed as decrease in cell vaibility after 24 hrs by MTT assay. Type of experiment: functional, cell-based. The conditions noted are these: for IC50: MDA-MB-231, 24 h.
For experiment [8], the system named is MCF7. The experiment in a line: Cytostatic activity against human MCF7 cells assessed as decrease in [3H]thymidine incorporation into DNA after 24 hrs by liquid scintillation counting analysis. Type of experiment: functional, cell-based. In general terms: Incorporation of labelled thymidine or its analogues reports DNA synthesis.
Experiment [9] deals with T1, Tyrosine-protein kinase ABL1. The experiment in a line: Inhibition of recombinant Abl kinase (unknown origin) expressed in Sf9 cells assessed as residual enzyme activity using GGEAIYAAPFKK as substrate at 10 uM in presence of [gamma33P]ATP.

T1 sequence (P00519 whole entry): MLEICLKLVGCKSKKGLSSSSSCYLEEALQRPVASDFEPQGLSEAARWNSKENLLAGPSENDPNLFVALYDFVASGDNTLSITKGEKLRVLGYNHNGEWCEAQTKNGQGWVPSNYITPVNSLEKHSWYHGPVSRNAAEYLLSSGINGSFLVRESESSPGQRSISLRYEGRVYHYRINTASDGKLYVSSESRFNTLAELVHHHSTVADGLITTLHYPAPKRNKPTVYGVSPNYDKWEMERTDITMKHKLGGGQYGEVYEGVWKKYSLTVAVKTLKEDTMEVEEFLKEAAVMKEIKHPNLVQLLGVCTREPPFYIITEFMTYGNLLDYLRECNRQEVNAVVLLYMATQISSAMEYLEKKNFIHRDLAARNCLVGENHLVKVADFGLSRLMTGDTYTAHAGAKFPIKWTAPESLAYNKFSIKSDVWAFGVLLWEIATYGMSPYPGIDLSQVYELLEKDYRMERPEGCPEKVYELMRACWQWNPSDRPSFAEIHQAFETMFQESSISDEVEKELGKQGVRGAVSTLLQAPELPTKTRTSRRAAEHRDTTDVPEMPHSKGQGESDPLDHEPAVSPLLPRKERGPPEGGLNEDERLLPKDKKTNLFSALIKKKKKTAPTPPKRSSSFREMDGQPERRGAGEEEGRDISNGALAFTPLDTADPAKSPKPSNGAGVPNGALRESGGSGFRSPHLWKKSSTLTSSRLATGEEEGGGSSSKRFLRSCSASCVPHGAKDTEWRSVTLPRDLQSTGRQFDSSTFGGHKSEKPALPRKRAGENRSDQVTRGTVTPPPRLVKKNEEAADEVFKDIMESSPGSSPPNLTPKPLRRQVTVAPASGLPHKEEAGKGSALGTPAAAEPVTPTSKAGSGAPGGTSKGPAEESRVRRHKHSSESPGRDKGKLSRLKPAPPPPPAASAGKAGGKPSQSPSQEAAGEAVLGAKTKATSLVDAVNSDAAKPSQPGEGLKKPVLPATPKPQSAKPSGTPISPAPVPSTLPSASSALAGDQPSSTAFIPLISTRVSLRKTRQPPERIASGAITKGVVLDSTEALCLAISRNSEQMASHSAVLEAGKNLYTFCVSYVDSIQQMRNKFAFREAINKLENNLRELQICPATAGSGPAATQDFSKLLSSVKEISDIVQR
Casein kinase II subunit alpha, sequence (P68400 whole entry): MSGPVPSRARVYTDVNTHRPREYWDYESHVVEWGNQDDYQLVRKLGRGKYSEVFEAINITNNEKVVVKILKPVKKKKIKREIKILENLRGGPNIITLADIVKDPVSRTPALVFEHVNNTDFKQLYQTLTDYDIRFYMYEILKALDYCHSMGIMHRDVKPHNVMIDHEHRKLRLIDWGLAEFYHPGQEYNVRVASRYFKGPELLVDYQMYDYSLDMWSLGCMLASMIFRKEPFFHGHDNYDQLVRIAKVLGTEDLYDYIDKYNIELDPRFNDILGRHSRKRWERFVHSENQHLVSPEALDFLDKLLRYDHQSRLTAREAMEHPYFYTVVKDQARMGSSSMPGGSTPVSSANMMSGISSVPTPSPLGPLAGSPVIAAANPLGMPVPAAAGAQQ

As for `Cc1nn(C)c2nnc(Nc3ccc(S(=O)(=O)NCCO)cc3)nc12`, the half-inhibitory concentration (IC50) is 49 µM in the experiment with CCRF-CEM; above 50 µM in experiment [1]; 41 µM in experiment [2]; 39 µM in [3]; above 200 µM in the experiment with MCF7 [4]; 100 µM in the experiment on K562. For the same molecule, the IC50 in the experiment with HL-60 was 42 µM; with MDA-MB-231 [5], above 200 µM; in [6] it was above 50 µM; with MDA-MB-231 [7], above 200 µM; with MCF7 [8] it was above 200 µM. The inhibition entry in the experiment with CCRF-CEM, in the experiment on BV-173, with MCF7 [4], in the experiment on K562, in the experiment on HL-60 and in the experiment with MDA-MB-231 [5] was “Dose-dependent effect” throughout. For the same molecule, the inhibition entry with MDA-MB-231 [7] and in the experiment with MCF7 [8] was “Dose-dependent effect” in each case.
For `O=C(O)CCCc1ccc(N(CCCl)CCCl)cc1` [CHLORAMBUCIL], the IC50 in the experiment with CCRF-CEM worked out at 21 µM; in experiment [2], 34 µM; in the experiment on MCF7 [4], 97 µM; in the experiment with K562 it was 84 µM; in the experiment with HL-60, 38 µM; in the experiment with MDA-MB-231 [5], 49 µM. For the same molecule, the figures for the IC50 in the experiment on MDA-MB-231 [7] and in the experiment with MCF7 [8] were 93 µM and 56 µM, respectively.
As to `Cc1nn(C)c2nnc(Nc3ccc(S(=O)(=O)NCCN4CCOCC4)cc3)nc12`, the half-maximal inhibitory concentration (IC50) in the experiment on CCRF-CEM was 64 µM; in experiment [1], above 50 µM; in [2], 39 µM; in experiment [3], 20 µM; in the experiment with MCF7 [4] it was 146 µM; in the experiment with K562, 96 µM. The 50% inhibitory concentration (IC50) is 41 µM in the experiment on HL-60; 120 µM with MDA-MB-231 [5]; above 50 µM in experiment [6]; 125 µM in the experiment on MDA-MB-231 [7]; 99 µM with MCF7 [8]. The inhibition result in the experiment on CCRF-CEM, in the experiment on BV-173, in the experiment on MCF7 [4], in the experiment with K562, in the experiment on HL-60 and in the experiment with MDA-MB-231 [5] was “Dose-dependent effect” throughout. Moreover, the inhibition result in the experiment on MDA-MB-231 [7] and with MCF7 [8] was “Dose-dependent effect” in each case.
In the case of `O=C(O)c1ccc2c(c1)nc(Nc1cccc(Cl)c1)c1ccncc12` [SILMITASERTIB], in [6], the IC50 is 1.8 µM.
Take `Cc1nn(C)c2nnc(Nc3ccc(S(=O)(=O)NC(CO)C(C)C)cc3)nc12` (configuration not stated): the concentration for half-maximal inhibition (IC50) in the experiment on CCRF-CEM was 54 µM; in experiment [1], above 50 µM; in [2], 58 µM; in experiment [3] it was above 50 µM; with MCF7 [4] it was above 200 µM; in the experiment with K562, above 200 µM. The IC50 is 40 µM in the experiment on HL-60; above 200 µM in the experiment with MDA-MB-231 [5]; above 50 µM in [6]; above 200 µM in the experiment on MDA-MB-231 [7]; above 200 µM with MCF7 [8]. Also, the inhibition result in the experiment on CCRF-CEM, with BV-173, in the experiment on MCF7 [4], in the experiment with K562, in the experiment with HL-60 and in the experiment on MDA-MB-231 [5] was “Dose-dependent effect” in each case. For the same molecule, the inhibition result in the experiment on MDA-MB-231 [7] and in the experiment on MCF7 [8] was “Dose-dependent effect” in each case. Also, in [9], the Activity worked out at 80%.

What is called IC50 is the point on the concentration scale where inhibition reaches its midpoint.
